“And” between values parts separate entries of the source, which are not always exact repeats. Equal entries are not always repeated.
How the values were obtained:
[1] = biological target: T1, CGT in CHO cells stably expressing human UGT8 (Homo sapiens, UniProt Q16880); test: CGT cellular assay (intact-cell assay); type: cell-based
T1 construct: expressed in transfected cells; host or cells: CHO cells stably expressing human UGT8
T1 sequence (Q16880 21-541): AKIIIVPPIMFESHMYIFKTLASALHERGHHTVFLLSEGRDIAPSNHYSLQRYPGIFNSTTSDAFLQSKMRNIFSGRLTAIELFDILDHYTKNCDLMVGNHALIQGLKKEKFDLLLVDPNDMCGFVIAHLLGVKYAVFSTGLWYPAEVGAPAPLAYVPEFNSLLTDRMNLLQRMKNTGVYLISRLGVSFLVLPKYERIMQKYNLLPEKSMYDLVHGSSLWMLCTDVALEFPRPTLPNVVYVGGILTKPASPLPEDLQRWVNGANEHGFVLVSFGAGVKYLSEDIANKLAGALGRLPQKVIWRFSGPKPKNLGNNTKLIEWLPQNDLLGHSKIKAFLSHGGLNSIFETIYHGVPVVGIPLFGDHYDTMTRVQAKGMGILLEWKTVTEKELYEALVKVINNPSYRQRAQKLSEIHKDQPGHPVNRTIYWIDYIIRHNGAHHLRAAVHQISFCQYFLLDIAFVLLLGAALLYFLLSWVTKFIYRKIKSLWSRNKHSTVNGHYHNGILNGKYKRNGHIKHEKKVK
Method: 3 × 10^4 CHO cells stably expressing human UGT8 were seeded in a 96-well TC plate in F12K + 10% FBS (Invitrogen, qualified, Australia, 10099141) and incubated at 37 °C, 5% CO2 overnight. Media was removed and compounds, diluted in F12K + 5% FBS (0.1% DMSO final) containing 1 µM eliglustat to prevent NBD-glucosylceramide formation, were added to the cells and incubated 2 h at 37 °C. NDB-(2R-OH)-C6-ceramide (BioMarin) in F12K + 5% FBS + 11% BSA was added to a final substrate concentration of 10 µM in 1% BSA and incubated 1 h at 37 °C before extracting in methanol/0.5% acetic acid containing N-dodecanoyl-NBD-galactosylceramide IS (1 µM). After 2 h shaking, the solution was centrifuged at 4000 rpm for 30 min, and 80 µL of supernatant was transferred to 40 µL H2O, mixed and centrifuged at 4000 rpm for 10 min. NDB-(2R-OH)-C6-galactosylceramide product was quantified by a Shimadzu ultra-fast liquid chromatography system (Shimadzu) coupled to an API 4000 mass spectrometer in ESI negative mode (Applied Biosystems) using a Kinetex C18 column (50 × 2.1 mm, 2.6 µm, 100 Å) (Phenomenex) with 0.1% formic acid and acetonitrile supplemented with 0.1% formic acid.

[2] = test system: GalCer and psychosine levels; test: Twitcher mouse brain psychosine and galactosylceramide analysis; type: in vivo; details: Twitcher mice treated PND3-PND28
Method: (§1) Mice heterozygous for the Twitcher mutation on the congenic C57BL/6 background were originally purchased from The Jackson Laboratories (stock #000845). Homozygous GALC −/− animals were generated from heterozygous mating. Genotypes were determined on PND1 by PCR as previously described[43],[44]. Animals that died prior to weaning on PND28 were excluded from the study unless otherwise noted. Animals were euthanized when they became moribund as defined by any of the following: losing 25% of their maximal body weight, ataxia severe enough to impair ability to eat or drink, or lack of response to tactile stimulus. Animals used for tissue collection were euthanized by anesthetic overdose and perfused transcardially with PBS for three min. Animals for lifespan analysis were euthanized using CO2 compressed gas delivered at 10–30% chamber volume displacement per min. […] Tissues were harvested and flash frozen in liquid nitrogen.
Galactosylsphingosine (psychosine), and galactosylceramide were measured by tandem mass spectrometry as previously described. Briefly, tissue samples were homogenized in 0.04 M citric acid. Internal controls in 200 µL methanol were added to 50 µL of each sample. […] Galactosylsphingosine and galactosylceramide were detected using MRM on an AB SCIEX 4000QTRAP tandem mass spectrometer using ESI in the positive ion mode. […]

Twitcher mice = test: Twitcher mouse survival; type: in vivo; details: for median survival: IP three times per week
Method: as §1

[3] = test system: sulfatide and lysosulfatide levels; test: ARSA knockout (MLD) mouse brain sulfatide and lysosulfatide analysis; type: in vivo; details: MLD (ARSA knockout) mice, IP three times per week
Method: ARSA mice were obtained from Volkmar Gieselmann, University of Bonn. ARSA −/− mice were generated from heterozygous pairing and confirmed by PCR genotyping. […] Animals were euthanized by exsanguination under deep anesthesia and brain and sciatic nerve removed, rinsed in cold saline, dried, and snap frozen for lipid quantification.
Previously diluted brain homogenate was serially diluted (10 µL into 90 µL and then 20 µL into 80 µL) in ACN/H2O (v/v 1:1) before being added to 300 µL ACN with IS (N-C18:0-CD3-sulfatide, Matreya). The mixture was vortexed for 10 min, centrifuged at 5800 rpm for 10 min, and then 3 µL of supernatant was injected for LC–MS/MS analysis. Sulfatides were separated on an ACE 5 C18 (2.1 × 50 mm, 5 µm) column (0.6 mL/min flow rate) at 60 °C using mobile phase A (H2O-5 mM NH4OAc) and mobile phase B (ACN). Non-hydroxy-sulfatide and 2-hydroxy-sulfatide were detected using MRM on a UPLC-MS/MS-22 (Triple Quad 6500) in positive ESI mode. Total sulfatides (Matreya) were used as reference standards. The non-hydroxy-sulfatide or 2-hydroxy-sulfatide species identified in the reference standards were each summed and normalized relative to the vehicle treated animals.
Sulfatides were quantified using the methods described above. For lysosulfatide, 30 µL of brain homogenates were added to 200 µL ACN with IS (N-acetylsulfatide, Matreya), vortexed for 10 min, and centrifuged at 5800 rpm for 10 min. 3 µL of supernatant was injected for LC–MS/MS analysis. UPLC–MS/MS methods were the same used for sulfatides described above except lysosulfatide (Matreya) was used as a reference standard.

What does the source list for C[C@H]1N(c2ccc(Br)cc2)C(=O)N(c2ccc(Br)cc2)C1(O)c1cccc(OC(F)(F)F)c1 (stereo partly drawn) [S202]?
IC50 [1]: 2 nM and 3.6 nM and 3 nM; non-hydroxy-GalCer in the brain [2]: dose-dependent reduction; psychosine levels in the brain [2]: reduced to the same extent as the non-hydroxy-GalCer; median survival (Twitcher mice; PND3 start, 0.15 mg/kg): 60 days; median survival (Twitcher mice; PND15 start, 5.0 mg/kg): ~ 63 days; effect on lifespan (Twitcher mice; PND3 start, highest dose tested (1.5 mg/kg)): reduced lifespan; 2-hydroxy-sulfatides in brain ([3]; higher doses): reduced; lysosulfatide in brain ([3]; lower doses): reduction; non-hydroxy-sulfatide in brain ([3]; lower doses): reduction

— publication PMC8280112, “Substrate reduction therapy for Krabbe disease and metachromatic leukodystrophy using a novel ceramide galactosyltransferase inhibitor” (Scientific Reports, 2021)
